In article PMC10096947 (2023):

Tested on: DOX aptamer (DNA, aptamer) ACCATCTGTGTAAGGGGTAAGGGGTGGT
Experiment: electrochemical aptasensor, SWV, Langmuir isotherm fit
Conditions: PBS 0.1 M (Na+/K+ concentrations not given), PBS pH 7.4, room temperature, 20 min incubation, immobilised aptamer

`COc1cccc2c1C(=O)c1c(O)c3c(c(O)c1C2=O)C[C@@](O)(C(=O)CO)C[C@@H]3O[C@H]1C[C@H](N)[C@H](O)[C@H](C)O1` gave an apparent dissociation constant of 2.55 µM.
